Results: patent publication US20060134126A1, “Peptide constructs for treating disease” (priority 2002, published 2006)
Ends that are not written are not given here.

Columns and labels:
[1] = tested on: plasmodium yoelii sporozoites; experiment: Protection from sporozoite challenge, TCBL derG in inbred mice (Tables 5, 6); type: in vivo
Text: (§1) Next using another antigen with B and T cell activity two inbred strains of mice, (A/J and Balb/c) were immunized twice at three week intervals with the L.E.A.P.S.™ constructs (J-GF/SF or der-SF/GF) or with the subunits (SF/GF, J and derG) used to make heteroconjugated peptides, and were challenged with 100 Plasmodium yoelii sporozoites 2 weeks after the second immunization and protection efficacy evaluated as before. Four days before challenge, serum was collected from individual animals, pooled and analyzed immediately for antibody to SF/GF peptide sera collected from immunized and protected mice 15 days post challenge were pooled and used for IFN-γ determination by ELISA procedures.
Another experiment similar to the first except only a single strain of mice (A/J) was used with decreasing doses of the derG in order to evaluate potency as shown in Table 6.

IFN-γ = experiment: Serum IFN-γ by ELISA; type: in vivo, mouse; conditions: A/J mice, sera pooled 15 days post challenge
Text: as §1

SF/GF peptide = experiment: Serum antibody ELISA to SF/GF peptide; type: in vivo, mouse
Text: as §1

[2] = tested on: P. yoelii (non lethal strain 17XNL) sporozoites; experiment: Comparison of lots and forms of derG in malaria system (Table 9); type: in vivo; conditions: A/J mice, 5 μg two times, TiterMax
Procedure: Four (4) groups of 10 mice (4-to 6-wk-old female A/J) were subcutaneously two times at 3-week intervals with 5 μg of the derG peptide, emulsified in TiterMax™ at 1:1 ratio as previously described. Two other groups of mice treated with TiterMax™ alone and untreated mice served as controls. Fourteen days after the second treatment mice were intravenously challenged with 100 P. yoelii (non lethal strain 17XNL ) sporozoites. Parasitemia was determined by microscopic examination of 200 oil-immersion fields of Geimsa stained-thin blood smears obtained from the mice at 5, 7, and 14 days post challenge.
In particular, the derG(19) peptide contains an additional glycine amino acid inserted between the A 140 and V 142 residues. The rationale for the insertion was that these two residues are involved in the CD4 interaction as disclosed in Konig et al. “MHC class II interaction with CD4 medicated by a region analogous to the MHC class I binding site for CD8”, Nature 1992; 356:796-798.

B16 melanoma = experiment: Allogeneic murine B16 melanoma protection model; type: in vivo, mouse; conditions: for Protection: in combination with allogeneic cells
Procedure: In particular, C57/b16 (H2^b) mice are vaccinated with the allogeneic melanoma K1735 (H2^k) at least twice on weekly intervals and then challenged with syngeneic B16 (H2^b) tumors. […] This is clear evidence of cross-priming and the existence of shared antigens.
Peptide constructs were prepared using as T cell binding ligand, either derG (SEQ ID NO. 7), Peptide G (SEQ ID NO. 5). The peptides are synthesized using the FMOC procedure and a double coupling protocol for the first 8 residues. Usually the peptide is prepared with the carboxyl terminus as an amide form. All of the peptides are purified using prepatative HPLC, and analyzed by an analytical HPLC, amino acid analysis and mass spectrophotometer. The peptides are greater than 95%, usually greater than 98%, pure by HPLC criteria. The dry peptides are stored in vials with desiccant at −8° C. • 1) Eight groups of seven mice were injected with 200 μl of the vaccine as shown in FIG. 1. • 2) This was repeated after 7 days. • 3) A further 7 days later, mice were challenged with 200 μl saline containing 5×10^4 live B16 on the contralateral side to vaccination. • 4) Mice were sacrificed when tumor size exceeded 15 mm in either axis.
In order more precisely model the use of clinical allogeneic vaccines, a frozen vaccine was used in the mouse model wherein K-1735 cells were thawed just prior to use. Efficacy in the protection model ranged from 40-10%. Additionally, the antigen TRP2 (a.a. 180-188), found in B16 melanoma, was engineered into L.E.A.P.S.™ constructs and was tested in various permutations in the allogeneic murine melanoma model. Optimization may be necessary.

[3] = tested on: plasmodium yoelii sporozoites; experiment: Protection from sporozoite challenge in different mouse strains (Table 7); type: in vivo; conditions: 25 μg, 2 times at 3 week intervals, TiterMax
Procedure: Since derG alone was able to protect A/J mice against Plasmodium yoelii sporozoites challenge, in the absence of malaria antigen, a similar experiment was conducted to evaluate the protective efficacy of derG in three other mouse strains: BALB/c (H2d), C3H/HeJ (H2K) and hybrid CAF1 (A/J×BALB/c).
Groups of 10 mice were pre-treated 2 times at 3 week intervals with 25 μg of derG in TiterMax™ adjuvant and challenged with 100 Plasmodium yoelii sporozoites. Protective efficacy was evaluated as described above.

HSV-1 = experiment: Scarification-zosteriform spread model of HSV infection; type: in vivo; conditions: A/J mice
Procedure: Groups of 4-to 6-wk old female A/J mice were subcutaneously inoculated once with 25 μg of the derG peptide emulsified in ISA51 adjuvant at a 1:1 ratio before challenge unless otherwise specified. Untreated mice and mice treated with adjuvant served as additional controls. The mice were challenged as specified in methods well known to those of ordinary skill in the art and as exemplified by Goel et al. (“The Ability of an HSV Strain to Initiate Zosteriform Spread Correlates with its Neuroinvasive Disease Potential”, Arch Virol 147:763-773 (2002)) and Goel et al., (“A Modification Of The Epidermal Scarification Model Of Herpes Simplex Virus Infection To Achieve A Reproducible And Uniform Progression Of Disease”, J Virol Meth 106;153-8 (2002)).
In particular, hair is removed by shaving and then Nair® is applied. Twenty-fours later the depilated back of a mouse is scratched or abraded to expose the susceptible epidermal layer and virus rubbed in. To provide more detail, 10 μl of a virus suspension containing 6×10^4 plaque forming-units was pipetted onto a 0.5 cm square of skin on mouse dorsal surface, which was previously abraded using sand paper glued on a pencil eraser. In untreated animals, the primary lesion developed at the inoculation site within 3 days and spread to the associated root, followed by anterograde transport and formation of secondary lesions at sites along the dermatome of the nerves within 5 days. In severe cases, animals died within 8 days post viral challenge. Disease progression and survival were monitored for at least 10 days. […] The progression and the severity of the lesions was scored from 0 to 7 (death). This model allows for discrimination of the disease progression (local site, neuronal spread, extent of lesion at the dermatome, death) at which the immune system blocks viral progression. In some experiments modifications in the timing, route of administration and mouse strain were evaluated for efficacy of CEL-1000.

[4] = tested on: plasmodium yoelii sporozoites; experiment: Malaria protection assay, G/W peptides (Table 4); type: in vivo; conditions: Experiment 2, outbred CD-1 mice; 25 μg twice; 200 sporozoites
Procedure: In particular, mice were immunized twice at three week intervals with 25 μg of the subunits (W or G) used to make the L.E.A.P.S.™ construct (GW), and were challenged with 200 plasmodium yoelii sporozoites 2 weeks after the second immunization. Protective efficacy was evaluated by thin blood smears every other day starting 4 days after the challenge. Mice were considered protected if no blood stage parasites were detectable by 14 days after challenge.

[5] = A/J mice, dose 5 μg, serum pool 4 days before challenge
[6] = A/J mice, dose 25 μg, serum pool 4 days before challenge
[7] = Balb/c mice, dose 25 μg, Table 5
[8] = A/J mice, dose 1.25 μg, Table 6

| Substance | Protection (%) ([1]; A/J mice, dose 5 μg, Table 5) | Protection Protected/Tested ([1]; A/J mice, dose 5 μg, Table 5) | Protection (%) ([1]; A/J mice, dose 5 μg, Table 6) | Protection Protected/Tested ([1]; A/J mice, dose 5 μg, Table 6) | Protection (%) ([1]; A/J mice, dose 10 μg, Table 6) | Protection Protected/Tested ([1]; A/J mice, dose 10 μg, Table 6) | Protection (%) ([1]; A/J mice, dose 25 μg, Table 5) | Protection Protected/Tested ([1]; A/J mice, dose 25 μg, Table 5) | IFN-γ serum (IFN-γ; dose 5 μg) | IFN-γ serum (IFN-γ; dose 25 μg) | Antibody ELISA A490* (SF/GF peptide; [5]) | Antibody ELISA A490* (SF/GF peptide; [6]) | Protection (%) [1, 7] | Protection Protected/Tested [1, 7] | Antibody ELISA A490* (SF/GF peptide; Balb/c mice, dose 25 μg) | further results |
| --- | --- | --- | --- | --- | --- | --- | --- | --- | --- | --- | --- | --- | --- | --- | --- | --- |
| SFPMNEESPLGFSPEEMEAVASKFR [GF/SF] | (30%) | 3/10 | (10%) | 1/10 | (50%) | 5/10 | (100%) | 10/10 | 10,000 pg/mL | 12,500 pg/mL | 8,443 | 19,970 | – | – | – | – |
| DLLKNGERIEKVEGGG SFPMNEESPLGFSPEEMEAVASKFR [J-GF/SF] | (10%) | 1/10 | – | – | (56%) | 5/9 | (100%) | 10/10 | 0 pg/mL | 4,000 pg/mL | 1,103 | 6,121 | (0%) | 0/10 | 11,454 | – |
| DGQEEKAGGVVSTGLIGGGamide (DGQEEKAGGVVSTGLIGGG-NH2) [derG(19), derG with an additional glycine inserted between the A 140 and V 142 residues] | – | – | – | – | – | – | – | – | – | – | – | – | – | – | – | % Protected ([2]; Lot 1): 40%; Protected/Total ([2]; Lot 1): 4/10; % Protected ([2]; Lot 2): 30%; Protected/Total ([2]; Lot 2): 3/10; % Protected ([2]; Lot 3): 50%; Protected/Total ([2]; Lot 3): 5/10 |
| DGQEEKAGVVSTGLIGGGamide (DGQEEKAGVVSTGLIGGG-NH2) [derG, modified fragment from MHC II β-chain (a.a.135-149)] | (100%) | 10/10 | (100%) | 10/10 | – | – | (100%) | 10/10 | 40,000 pg/mL | 18,000 pg/mL | 2 | 2 | (0%) | 0/10 | 4 | Protection (%) [1, 8]: (60%); Protection Protected/Tested [1, 8]: 6/10; Protection (%) ([1]; A/J mice, dose 2.5 μg, Table 6): (80%); Protection Protected/Tested ([1]; A/J mice, dose 2.5 μg, Table 6): 9/10; % Protected ([2]; form 18): 90%; Protected/Total ([2]; form 18): 9/10; Protection (B16 melanoma; first value named of two experiments): 30%; Protection (B16 melanoma; second value named of two experiments): 40%; Protection ([3]; A/J mice): 80; Protection ([3]; BALB/c mice): 0; Protection ([3]; C3H mice): 40; Protection ([3]; CAF1 hybrid mice): 40; protection from lethal HSV-1 challenge (HSV-1): protects; Protection (HSV-1; intramuscularly 2 weeks prior to challenge, without adjuvant, in aqueous solution): 100%; onset of symptoms, morbidity and mortality (HSV-1; single dose of 25 μg, timing of administration): delay in onset of symptoms |
| NGQEEKAGVVSTGLIGGGamide (NGQEEKAGVVSTGLIGGG-NH2) [G + TM] | – | – | – | – | – | – | – | – | – | – | – | – | – | – | – | # Protected/# tested [4]: 6/16; % protection [4]: 38%; activity compared with derG (B16 melanoma; differences from derG): much less active |
| DLLKNGERIEKVEGGG [J, short fragment from β2-microglobulin (a.a. 38-50)] | (10%) | 1/10 | – | – | (10%) | 1/10 | (10%) | 1/10 | – | – | 1 | 2 | (0%) | 0/10 | 2 | – |
| DGQEEKAGVVSTGLIGGGSFPMNEESPLGFSPEEMEAVASKFR [derG-GF/SF] | (80%) | 8/10 | (10%) | 1/10 | – | – | (100%) | 10/10 | 7,000 pg/mL | 6,000 pg/mL | 1,933 | 10,694 | (0%) | 0/10 | 17,019 | – |
